The source made the active and inactive calls. The rule behind the calls is not given here.
How the values were obtained:
Candida albicans [1] = experiment: Antifungal activity against Candida albicans ATCC SC5314 assessed as fungal growth inhibition by microdilution method; format: functional
Candida albicans [2] = experiment: Antifungal activity against […] assessed as fractional inhibitory concentration index in presence of fluconazole by microdilution method; format: functional
Candida albicans [3] = experiment: Antifungal activity against Candida albicans ATCC SC5314 assessed as fungal growth inhibition in presence of fluconazole by microdilution method; format: functional
Candida albicans [4] = experiment: Antifungal activity against Candida albicans ATCC SC5314 assessed as fractional inhibitory concentration index in presence of fluconazole by microdilution method; format: functional
Candida albicans [5] = experiment: Downregulation of ATP level in Candida albicans in presence of fluconazole; format: functional, organism-based
Candida albicans [6] = experiment: Induction of ROS accumulation in Candida albicans assessed as increase in intracellular ROS level in presence of fluconazole; format: functional, organism-based
Candida albicans [7] = experiment: Induction of ROS accumulation in Candida albicans assessed as increase in intracellular ROS level; format: functional, organism-based
Candida albicans [8] = experiment: Antifungal activity against Candida albicans ATCC SC5314 assessed as reduction in hypha length at 32 microg/ml measured for 4 to 8 hrs in presence fluconazole of by inverted microscopic analysis; format: functional, organism-based; details: dose 32.0 µg/ml, time 4-8 hrs
Candida albicans [9] = experiment: Antifungal activity against […] assessed as fungal growth inhibition in presence of fluconazole by time kill assay; format: functional, organism-based; details: time 72.0 hrs, TDE = time-dependent effect
Candida albicans [10] = experiment: Inhibition of mitochondrial membrane potential in Candida albicans in presence of fluconazole; format: functional, organism-based
Candida albicans [11] = experiment: Antifungal activity against Candida albicans ATCC SC5314 assessed as decrease in number of hypha at 32 microg/ml measured for 4 to 8 hrs in presence fluconazole of by inverted microscopic analysis; format: functional, organism-based; details: dose 32.0 µg/ml, time 4-8 hrs
Candida albicans [12] = experiment: Antifungal activity against […] assessed as fungal growth inhibition by microdilution method; format: functional
Candida albicans [13] = experiment: Antifungal activity against […] assessed as fungal growth inhibition measured for 72 hrs by time kill assay; format: functional, organism-based
Candida albicans [14] = experiment: Inhibition of biofilm formation in Candida albicans ATCC SC5314 at 32 microg/ml in presence fluconazole measured at 24 hrs; format: functional, organism-based; details: dose 32.0 µg/ml
Candida albicans [15] = experiment: Antifungal activity against […] assessed as fungal growth inhibition in presence of fluconazole by microdilution method; format: functional
Candida albicans [16] = experiment: Downregulation of ATP level in Candida albicans; format: functional, organism-based
Candida albicans [17] = experiment: Inhibition of mitochondrial membrane potential in Candida albicans; format: functional, organism-based

SMILES	MIC80 (Candida albicans [1]) [µg/mL]	FICI80 (Candida albicans [2])	MIC80 (Candida albicans [3]) [µg/mL]	FICI80 (Candida albicans [4])	MIC80 (Candida albicans [15]) [µg/mL]	further results
CCOc1nc2ccccc2cc1/C=C/C(=O)c1ccc(F)cc1	> 200	2	5.54	2.74		
O=C(/C=C/c1cc2ccccc2nc1N1CCCCC1)c1ccc(F)cc1	> 200	2	0.96	0.48		
Cc1cccc(C)c1Oc1nc2ccccc2cc1/C=C/C(=O)c1ccc(OC(F)(F)F)cc1	> 200	2	2.37	1.17		
CCN(CC)c1nc2ccccc2cc1/C=C/C(=O)c1ccc([N+](=O)[O-])cc1	> 200	2	3.99	1.98		
CN1CCN(c2nc3ccccc3cc2/C=C/C(=O)c2ccc(F)cc2)CC1	85.9	0.16	3.61	1.82	6.4	Activity (Candida albicans [5]): Active; Activity (Candida albicans [6]): Active; Activity (Candida albicans [7]): Active; Activity (Candida albicans [8]): Active; Activity (Candida albicans [9]): Tde; inhibition (Candida albicans [10]): Active; Activity (Candida albicans [11]): Active; MIC80 (Candida albicans [12]): > 200 µg/mL; Activity (Candida albicans [13]): Active; inhibition (Candida albicans [14]): Active; Activity (Candida albicans [16]): Active
Cc1cccc(C)c1Oc1nc2ccccc2cc1/C=C/C(=O)c1ccc(F)cc1	> 200	0.33	1.17	0.58	65.1	
OC(Cn1cncn1)(Cn1cncn1)c1ccc(F)cc1F [FLUCONAZOLE]	2.03					MIC80 (Candida albicans [12]): > 200 µg/mL
CCN(CC)c1nc2ccccc2cc1/C=C/C(=O)c1ccc(F)cc1	> 200	0.03	1.87	0.93	5.36	
CCN(CC)c1nc2ccccc2cc1/C=C/C(=O)c1ccc(OC(F)(F)F)cc1	> 200	0.02	1.85	0.92	4.42	
CCOc1nc2ccccc2cc1/C=C/C(=O)c1ccc([N+](=O)[O-])cc1	> 200	2	4.96	2.46		
CN1CCN(c2nc3ccccc3cc2/C=C/C(=O)c2ccc([N+](=O)[O-])cc2)CC1	> 200	0.17	4.28	1.25	6.9	Activity (Candida albicans [5]): Active; Activity (Candida albicans [6]): Active; Activity (Candida albicans [7]): inactive; Activity (Candida albicans [9]): Tde; Activity (Candida albicans [13]): Active; inhibition (Candida albicans [17]): inactive; inhibition (Candida albicans [14]): Active; Activity (Candida albicans [16]): Active
CCOc1nc2ccccc2cc1/C=C/C(=O)c1ccc(OC(F)(F)F)cc1	> 200	0.08	2.9	16.04	16	
O=C(/C=C/c1cc2ccccc2nc1N1CCCCC1)c1ccc(OC(F)(F)F)cc1	> 200	2	4.89	2.42		
CN1CCN(c2nc3ccccc3cc2/C=C/C(=O)c2ccc(OC(F)(F)F)cc2)CC1	17.6	0.23	4.28	2.35	6.14	MIC80 (Candida albicans [12]): 17.8 µg/mL
Cc1cccc(C)c1Oc1nc2ccccc2cc1/C=C/C(=O)c1ccc([N+](=O)[O-])cc1	> 200	0.23	3.07	1.52		
O=C(/C=C/c1cc2ccccc2nc1N1CCCCC1)c1ccc([N+](=O)[O-])cc1	> 200	2	5.64	2.79		

— ChEMBL document CHEMBL5252624, “Antifungal evaluation of quinoline-chalcone derivatives combined with FLC against drug-resistant Candida albicans” (2023)
